From patent US20250017935A1, “7,8-DIHYDRO-5H-1,6-NAPHTHYRIDINE DERIVATIVES AS POSITIVE ALLOSTERIC MODULATORS OF THE MUSCARINIC ACETYLCHOLINE RECEPTOR M4 FOR TREATING NEUROLOGICAL AND PSYCHIATRIC DISORDERS” (Vanderbilt University, priority 2021, published 2025) come the findings set out here.

In this assay the target is T1, Human M4 (Homo sapiens, UniProt P08173).
T1 construct: expressed in transfected cells; host or cells: CHO-K1 (ATCC), stably expressing hM4 and Gqi5
T1 sequence (P08173 1-479): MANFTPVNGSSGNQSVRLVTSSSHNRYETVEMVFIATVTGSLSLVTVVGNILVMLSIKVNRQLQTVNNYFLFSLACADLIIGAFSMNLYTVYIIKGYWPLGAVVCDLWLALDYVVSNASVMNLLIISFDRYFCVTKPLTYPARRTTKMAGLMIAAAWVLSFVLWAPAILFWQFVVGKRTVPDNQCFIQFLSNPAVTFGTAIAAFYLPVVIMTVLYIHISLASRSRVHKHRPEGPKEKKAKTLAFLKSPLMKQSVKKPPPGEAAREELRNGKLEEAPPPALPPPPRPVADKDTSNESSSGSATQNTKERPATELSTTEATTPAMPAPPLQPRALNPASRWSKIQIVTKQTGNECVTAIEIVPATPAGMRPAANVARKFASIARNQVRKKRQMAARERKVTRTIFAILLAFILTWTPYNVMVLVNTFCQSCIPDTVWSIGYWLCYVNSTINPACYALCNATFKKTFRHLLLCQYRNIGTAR
Nature of the assay: mAChR M4 cell-based functional assay (calcium flux, potentiation of EC20 acetylcholine response) in hM4-Gqi5 CHO-K1 cells. The settings on record: for Emax at 30 µM: % ACh maximum at 30 μM, human M4 CHO-K1 cells; for EC50: CHO-K1 cells transfected with human M4 and Gqi5, positive allosteric modulator activity, EC20 acetylcholine. Summed up:
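CHO-K1 cells stably expressing human M4 with chimeric Gqi5, Fluo-4 AM-loaded; 11-point 1:3 compound series added, intracellular calcium recorded by FDSS at 1 Hz. PAM EC50 is concentration giving 50% of maximal compound-induced increase above the acetylcholine EC20 baseline, from four-parameter logistic fit; Emax also derived.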
On the technique in general: Calcium assays in cells follow changes in intracellular calcium, usually with a dye or a luminescent sensor.

What is called Emax is the greatest response seen or fitted, relative to the assay's reference. What is called EC50 is the concentration at which the effect is half-maximal. As to `Clc1nc2c(c(N3CCc4ncc(C5CC5)cc4C3)n1)COC2` [Compound 66, 2-chloro-4-(3-cyclopropyl-7,8-dihydro-1,6-naphthyridin-6(5H)-yl)-5,7-dihydrofuro[3,4-d]pyrimidine], the Emax at 30 µM was determined as 54% and the EC50 came to 0.58 µM.

As for `Cn1nccc1Nc1cnc2c(c1)CN(c1nc(Cl)nc3c1COC3)CC2` [Compound 67, 6-(2-chloro-5,7-dihydrofuro[3,4-d]pyrimidin-4-yl)-N-(1-methyl-1H-pyrazol-5-yl)-5,6,7,8-tetrahydro-1,6-naphthyridin-3-amine], the Emax at 30 µM is 51% and the EC50 is 1.22 µM.

For `Fc1ncccc1Nc1cnc2c(c1)CN(c1nc(Cl)nc3c1COC3)CC2` [Compound 68, 6-(2-chloro-5,7-dihydrofuro[3,4-d]pyrimidin-4-yl)-N-(2-fluoropyridin-3-yl)-5,6,7,8-tetrahydro-1,6-naphthyridin-3-amine], the maximum response (Emax) at 30 µM came to 51% and the concentration for a half-maximal effect (EC50) is 0.92 µM.

`Fc1ccccc1Oc1cnc2c(c1)CN(c1nc(Cl)nc3c1COC3)CC2` [Compound 69, 2-chloro-4-(3-(2-fluorophenoxy)-7,8-dihydro-1,6-naphthyridin-6(5H)-yl)-5,7-dihydrofuro[3,4-d]pyrimidine]: the Emax at 30 µM turned out to be 42% and the EC50 amounted to 0.99 µM.
